These results are taken from patent US20090111846A1, “PHARMACEUTICAL COMPOSITIONS COMPRISING DEXTROMETHORPHAN AND QUINIDINE FOR THE TREATMENT OF DEPRESSION, ANXIETY, AND NEURODEGENERATIVE DISORDERS” (Avanir Pharmaceuticals, priority 2006, published 2009).

For data set [1] the following is noted: cited from earlier work.
Data set [2] relates to perioperative brain injury. The settings on record: cited from earlier work.
Data set [3] has as its system amyotrophic lateral sclerosis. The settings on record: cited from earlier work.
In data set [4] the test system is glutamate-induced neurotoxicity in neocortical cell cultures, in vitro hypoxia and glucose deprivation models. The settings on record: cited from earlier work.
A short description of data set [5]: Dextromethorphan with quinidine in healthy subjects (Pope et al.). The settings on record: from 68-fold concentration in brain and plasma levels with quinidine. It counts as in vivo, human. The protocol:
The use of quinidine to inhibit the rapid first-pass metabolism of dextromethorphan allows the attainment of potential neuroprotective drug levels in the brain. […] This dose, 30 mg twice daily (BID) given with 60 mg BID dextromethorphan, increased plasma levels of dextromethorphan 25-fold. In this manner, coadministration of 30 mg of quinidine BID with dextromethorphan in the three unsuccessful amyotrophic lateral sclerosis neuroprotection trials could have readily transformed the inadequate dextromethorphan doses into standard neuroprotective plasma concentrations.
Given the 68-fold concentration of dextromethorphan in brain found in neurosurgery patients (Steinberg et al. J Neurosurg. 1996; 84:860-6), an estimated brain concentration of 13,100 ng/g (about 48 microM) is achievable. This corresponds to neuroprotective levels established in preclinical in vitro (Choi et al. J Pharmacol Exp Ther. 1987; 242:713-20) and in vivo (Steinberg et al. Neurol Res. 1993; 15:174-80) studies.
A reasonable concern is that the achievement of higher dextromethorphan plasma concentrations, as well as the use of quinidine, may be associated with an increased occurrence of adverse events, particularly in patients with neurological disorders. […] No difference was found between the extensive and poor metabolizer phenotypes. […]

Data set [6] deals with methotrexate (MTX) neurotoxicity. The settings on record: oral 1-2 mg/kg, N=5, all patients; cited from earlier work.
For data set [7] the following is noted: single oral dose 30 mg, extensive metabolizers (N=5); cited from earlier work.
The conditions of data set [8]: ALS, detectable in only 1 of 7 patients, 4.8 to 10 mg/kg/day, at 3 months; cited from earlier work.
The conditions of data set [9]: cited from earlier work. This is another data set of the same source.
For data set [10] the following is noted: Huntington's disease, N=11; cited from earlier work.
Data set [11] relates to neocortical ischemic neuronal damage and edema. The settings on record: cited from earlier work.
For data set [12] the following is noted: in vivo. As for the experimental part: Dosages of other antioxidants will vary with the antioxidant, and are determined on an individual basis.

“Also recorded” adds a separate entry of the source.

For `COc1ccc2c(c1)[C@]13CCCCC1[C@H](C2)N(C)CC3` (single isomer, unassigned; (+)) [dextromethorphan, (+)-3-methoxy-N-methylmorphinan], the adverse reactions result in data set [1] (even at the highest levels, symptoms tolerable and reversible) is reported as “no patient suffered severe adverse reactions”. In addition, the “maximum level in serum” value in [1] (neurosurgery patients, maximum 9.64 mg/kg oral dose) is 1514 ng/mL. In addition, in [1] (neurosurgery patients), the “maximum level in brain” value is on record as 92,700 ng/g. The “levels in CSF” value in data set [2] (oral 36-38 mg/kg/day, children, cardiac surgery) is 285 to 939 ng/mL. Also, the adverse events result in [2] (oral 36-38 mg/kg/day) is “not observed”. Besides, the “postoperative EEG sharp waves” value in data set [2] (p=0.02, N=13) was “significantly decreased postoperative EEG sharp waves”. Further, in data set [2] (vs. 0.256 cm placebo, p=0.06), the “third ventricle postoperative enlargement, diameter” value was 0.112 cm. The “rate of postoperative periventricular white matter lesions” value in data set [2] (vs. 2/7 placebo) is on record as 0/6. In data set [3] (Askmark et al., N=14, 150 mg/day 12-week crossover, then 300 mg/day open), the “clinical or neurophysiological parameter improvements” value is given as “no clinical or neurophysiological parameter”. For the same compound, the “rate of disease progression vs placebo” value in [3] (Blin et al., N=49, 1.5 mg/kg/day, 1-year) is reported as “no significant differences in rate of disease progression”. Moreover, the 12-month survival entry in data set [3] (Gredal et al., N=45, 150 mg/day) is “did not demonstrate an improvement in 12-month survival”. Further, the “concentration giving almost complete protection” value in [4] is 100 µM. For the same compound, the “estimated brain concentration achievable” value in data set [5] was 13,100 ng/g and about 48 microM. Besides, in [6], the “neurological symptoms of MTX neurotoxicity” value is “completely resolved neurological symptoms; also recorded: completely resolved neurological deficits”. In [7], the dextromethorphan in plasma result is reported as “not detectable or at the limits of detection”. The “steady-state plasma level (Cmax)” value in data set [8] was 190 ng/mL. The AUC0-12 in [9] (120 mg daily dextromethorphan (60 mg BID) with quinidine (30 mg BID), steady state) is 1963 ± 609 ng·h/mL. For the same compound, the “steady state peak plasma levels” value in [9] (120 mg daily dextromethorphan (60 mg BID) with quinidine (30 mg BID)) is 192 ± 45 ng/mL. Besides, in data set [10], the “median peak tolerated dose” value was 410 mg/day. Also, the “neuroprotective plasma (serum) levels” value in data set [11] (animal models of cerebral ischemia) is at least 500 ng/mL. Moreover, the neuroprotective brain levels result in data set [11] (conversion of 10,000 ng/g) is reported as “about 37 microM”.

With `C=C[C@H]1C[N@]2CC[C@@H]1C[C@@H]2[C@@H](O)c1ccnc2ccc(OC)cc12` [quinidine], in [9] (human, in vivo), the “lowest dose needed to maximally suppress O-demethylation of dextromethorphan” value was “about 30 mg”. In addition, the “increase of plasma levels of dextromethorphan” value in [9] (quinidine 30 mg BID given with 60 mg BID dextromethorphan) is 25 fold.

`CNCCC(Oc1ccc(C(F)(F)F)cc1)c1ccccc1` (stereo not drawn) [fluoxetine]: the “increase of dextromethorphan concentrations in the blood” value in data set [12] is recorded as “effective in increasing dextromethorphan concentrations in the blood of some people”.
